The NIST ThermoML archive (doi:10.1016/j.jct.2016.10.023)

Test: xn = mol fraction of the nth substance listed
Conditions: Constant-volume piezometry

CCCCC [pentane] + CCCO
Conditions	mass density [kg/m3]
483.15 K, 3273 kPa, Gas, x1 = 0.5	89.08
483.15 K, 3361 kPa, Gas, x1 = 0.5	96.03
483.15 K, 3529 kPa, Gas, x1 = 0.8	106.6
483.15 K, 3605 kPa, Fluid (supercritical or subcritical phases), x1 = 0.9	123.58
483.15 K, 3709 kPa, Fluid (supercritical or subcritical phases), x1 = 0.9	134.38
483.15 K, 3900 kPa, Fluid (supercritical or subcritical phases), x1 = 0.9	164.27
483.15 K, 3917 kPa, Fluid (supercritical or subcritical phases), x1 = 0.8	140.58
483.15 K, 3927 kPa, Liquid, x1 = 0.5	373.66
483.15 K, 3981 kPa, Fluid (supercritical or subcritical phases), x1 = 0.8	156.35
483.15 K, 4002 kPa, Fluid (supercritical or subcritical phases), x1 = 0.9	189.82
483.15 K, 4026 kPa, Liquid, x1 = 0.5	384.78
483.15 K, 4033 kPa, Fluid (supercritical or subcritical phases), x1 = 0.8	170.11
483.15 K, 4049 kPa, Fluid (supercritical or subcritical phases), x1 = 0.9	202.77
483.15 K, 4053 kPa, Fluid (supercritical or subcritical phases), x1 = 0.8	176.37
483.15 K, 4071 kPa, Fluid (supercritical or subcritical phases), x1 = 0.8	181.18
483.15 K, 4106 kPa, Fluid (supercritical or subcritical phases), x1 = 0.8	193.54
483.15 K, 4109 kPa, Fluid (supercritical or subcritical phases), x1 = 0.9	221.12
483.15 K, 4156 kPa, Fluid (supercritical or subcritical phases), x1 = 0.9	233.52
483.15 K, 4162 kPa, Fluid (supercritical or subcritical phases), x1 = 0.8	214.27
483.15 K, 4171 kPa, Fluid (supercritical or subcritical phases), x1 = 0.9	236.99
483.15 K, 4179 kPa, Fluid (supercritical or subcritical phases), x1 = 0.8	220.05
483.15 K, 4189 kPa, Fluid (supercritical or subcritical phases), x1 = 0.9	241.4
483.15 K, 4200 kPa, Fluid (supercritical or subcritical phases), x1 = 0.9	244.72
483.15 K, 4211 kPa, Fluid (supercritical or subcritical phases), x1 = 0.8	235.17
483.15 K, 4239 kPa, Fluid (supercritical or subcritical phases), x1 = 0.8	245.83
483.15 K, 4277 kPa, Fluid (supercritical or subcritical phases), x1 = 0.8	259.08
483.15 K, 4309 kPa, Fluid (supercritical or subcritical phases), x1 = 0.9	282.57
483.15 K, 4317 kPa, Fluid (supercritical or subcritical phases), x1 = 0.8	273.08
483.15 K, 4417 kPa, Fluid (supercritical or subcritical phases), x1 = 0.8	288.96
483.15 K, 4435 kPa, Fluid (supercritical or subcritical phases), x1 = 0.9	302.29
483.15 K, 4437 kPa, Liquid, x1 = 0.5	398.98
483.15 K, 4493 kPa, Fluid (supercritical or subcritical phases), x1 = 0.8	299.8
483.15 K, 4551 kPa, Fluid (supercritical or subcritical phases), x1 = 0.9	312.96
483.15 K, 4646 kPa, Fluid (supercritical or subcritical phases), x1 = 0.8	316.01
483.15 K, 4807 kPa, Liquid, x1 = 0.2	510.78
483.15 K, 4877 kPa, Fluid (supercritical or subcritical phases), x1 = 0.9	334.72
483.15 K, 4915 kPa, Fluid (supercritical or subcritical phases), x1 = 0.8	334.54
483.15 K, 5017 kPa, Liquid, x1 = 0.5	418.13
483.15 K, 5178 kPa, Fluid (supercritical or subcritical phases), x1 = 0.8	346.09
483.15 K, 5428 kPa, Fluid (supercritical or subcritical phases), x1 = 0.9	354.86
483.15 K, 5641 kPa, Fluid (supercritical or subcritical phases), x1 = 0.8	362.7
483.15 K, 6347 kPa, Liquid, x1 = 0.5	441.94
483.15 K, 7296 kPa, Liquid, x1 = 0.5	452.28
483.15 K, 8060 kPa, Liquid, x1 = 0.5	459.37
483.15 K, 8482 kPa, Fluid (supercritical or subcritical phases), x1 = 0.9	408.19
483.15 K, 8984 kPa, Fluid (supercritical or subcritical phases), x1 = 0.8	419.13
483.15 K, 9371 kPa, Liquid, x1 = 0.5	469.23
483.15 K, 10899 kPa, Liquid, x1 = 0.2	548.38
483.15 K, 16393 kPa, Fluid (supercritical or subcritical phases), x1 = 0.8	467.78
483.15 K, 16725 kPa, Liquid, x1 = 0.5	507.77
483.15 K, 19754 kPa, Liquid, x1 = 0.5	520.6
483.15 K, 21392 kPa, Liquid, x1 = 0.2	582.82
483.15 K, 24098 kPa, Fluid (supercritical or subcritical phases), x1 = 0.8	497.3
483.15 K, 27685 kPa, Liquid, x1 = 0.2	596.46
483.15 K, 28654 kPa, Liquid, x1 = 0.5	549.54
483.15 K, 34153 kPa, Fluid (supercritical or subcritical phases), x1 = 0.8	521.9
483.15 K, 37683 kPa, Liquid, x1 = 0.2	615.9
484.15 K, 3395 kPa, Gas, x1 = 0.5	96.03
485.15 K, 3427 kPa, Gas, x1 = 0.5	96.02
486.15 K, 3456 kPa, Gas, x1 = 0.5	96.02
487.15 K, 3750 kPa, Gas, x1 = 0.5	122.1
487.15 K, 4130 kPa, Liquid, x1 = 0.5	345.19
488.15 K, 3498 kPa, Gas, x1 = 0.5	96.01
488.15 K, 3783 kPa, Gas, x1 = 0.5	122.1
488.15 K, 4237 kPa, Liquid, x1 = 0.5	345.17
489.15 K, 3815 kPa, Gas, x1 = 0.5	122.09
489.15 K, 4203 kPa, Liquid, x1 = 0.5	325.83
490.15 K, 3453 kPa, Liquid, x1 = 0.2	471.25
491.15 K, 4012 kPa, Gas, x1 = 0.5	144.34

mass density [kg/m3], Liquid
Conditions	486.15 K	488.75 K	489.55 K	489.85 K	491.65 K
x1 = 0.2	–	–	–	471.25	–
x1 = 0.5	345.21	325.84	320.54	–	299.15
